Results: patent US4927851A, “Analogs of mevalonolactone and derivatives thereof” (Sandoz Pharm. Corp., priority 1988, dated 1990)
pIC50: −log10 of the molar value. Where a name gives a salt, the structure may show the parent alone.

Columns and labels:
[1] = tested on: 3β-hydroxysterol synthesis; experiment: Test B. In Vivo Cholesterol Biosynthesis Inhibition Test; conditions: Rattus norvegicus, po; rats, orally administered, 0.01-200 mg/kg body weight; read-out: ED50, dose producing a 50% inhibition of 3β-hydroxysterol synthesis
Procedure: Test B. In Vivo Cholesterol Biosynthesis Inhibition Test:
In this test the rats are orally administered the test substance (compound of Formula I) at dose of 0.01-200 mg/kg. body weight. The obtained ED50 is the dose of the test substance observed or calculated to produce a 50% inhibition of 3β-hydroxysterol synthesis.

[2] = molecular target: T1, HMG-CoA reductase (Rattus norvegicus, UniProt P51639); experiment: Test A. In Vitro Microsomal Assay of HMG-CoA Reductase Inhibition; type: biochemical; conditions: test substance 0.0005-2,000 μmolar, read-out: IC50, concentration producing a 50% inhibition of HMG-CoA reductase activity
T1 construct: from tissue; host or cells: microsomes (printed); rat liver, Sprague-Dawley, by own knowledge of the cited method
T1 sequence (P51639 1-887): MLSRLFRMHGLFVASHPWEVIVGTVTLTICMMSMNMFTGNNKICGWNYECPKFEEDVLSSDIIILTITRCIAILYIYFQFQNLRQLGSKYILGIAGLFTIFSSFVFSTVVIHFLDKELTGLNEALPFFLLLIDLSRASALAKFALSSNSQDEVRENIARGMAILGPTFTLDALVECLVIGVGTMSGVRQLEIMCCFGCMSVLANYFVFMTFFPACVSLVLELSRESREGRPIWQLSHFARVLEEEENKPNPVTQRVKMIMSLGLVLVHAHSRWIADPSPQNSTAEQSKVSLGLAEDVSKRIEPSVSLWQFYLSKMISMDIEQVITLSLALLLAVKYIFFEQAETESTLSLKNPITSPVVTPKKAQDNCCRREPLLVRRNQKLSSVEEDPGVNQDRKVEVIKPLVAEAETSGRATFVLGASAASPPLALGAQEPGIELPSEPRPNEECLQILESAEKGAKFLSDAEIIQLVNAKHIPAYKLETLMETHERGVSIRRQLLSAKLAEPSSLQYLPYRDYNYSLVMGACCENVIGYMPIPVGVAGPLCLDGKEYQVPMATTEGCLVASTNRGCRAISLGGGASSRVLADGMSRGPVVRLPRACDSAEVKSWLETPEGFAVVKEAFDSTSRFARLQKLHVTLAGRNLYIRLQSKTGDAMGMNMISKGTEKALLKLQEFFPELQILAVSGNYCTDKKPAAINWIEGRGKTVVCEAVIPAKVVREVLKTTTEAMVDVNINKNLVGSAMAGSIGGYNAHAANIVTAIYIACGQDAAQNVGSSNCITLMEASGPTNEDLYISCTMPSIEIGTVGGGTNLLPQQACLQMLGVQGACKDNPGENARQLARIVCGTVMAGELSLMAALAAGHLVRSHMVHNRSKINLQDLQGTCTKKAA
Procedure: Test A. In Vitro Microsomal Assay of HMG-CoA Reductase Inhibition:
This test is carried out precisely as described in column 53 of U.S. Pat. No. 4,613,610 and on page 30 of World (PCT) Published Patent Application No. 84/02131, both of which are hereby incorporated by reference as if set forth herein in their entirety. The concentration of the test substance (compound of Formula I) in the assay system is 0.0005-2,000 μmolar. The obtained IC50 is the concentration of the test substance in the assay system observed or calculated to produce a 50% inhibition of HMG-CoA reductase activity.

Row | pIC50 [2] | SMILES | ED50 [1]
1 | 7.55 | CC(C)c1sc(-c2ccccc2)c(-c2ccccc2)c1/C=C/C(O)CC(O)CC(=O)O (centres unmarked) [Example 5c, sodium(E)-7-(4-phenyl-2-isopropyl-5-phenylthien-3-yl)-3,5-dihydroxy-hept-6-enoate] | 0.169 mg/kg
2 | 7.57 | CC(C)c1sc(C(C)C)c(-c2ccc(F)cc2)c1/C=C/C(O)CC(O)CC(=O)O (centres unmarked) [Example 8 (sodium salt)] | 0.076 mg/kg

The remaining lines, values behind:

Row | SMILES | pIC50 [2] | ED50 [1]
3 | CC[C@H](C)C(=O)O[C@H]1CCC=C2C=C[C@H](C)[C@H](CC[C@@H]3C[C@@H](O)CC(=O)O3)[C@H]21 [Compactin, reference compound] | – | 3.5 mg/kg
4 | CC(C)c1oc(-c2ccccc2)c(-c2ccc(F)cc2)c1/C=C/C(O)CC(O)CC(=O)O (centres unmarked) [Example 5b] | 6.72 | 0.35 mg/kg
5 | CC[C@H](C)C(=O)O[C@H]1C[C@@H](C)C=C2C=C[C@H](C)[C@H](CC[C@@H]3C[C@@H](O)CC(=O)O3)[C@H]21 [Mevinolin, reference compound] | – | 0.41 mg/kg
